≈ marks a conversion by molar mass, not a printed value. Where two headings read alike, the source gives them in different places. A value given as a limit tells only on which side of the number the result lay.

Results on nine molecules are retold here after US4778797A, “Organo-silicon compounds, process for the manufacture of same, and anti-tumor agent comprising the compound” (Sanwa Kagaku Kenkyusho Co., Ltd., priority 1984, dated 1988).

For one test, the system named is Colon-38 carcinoma. The test can be described thus: Anti-tumor action to Colon-38 carcinoma. In kind it is in vivo, BDF1 mice. To be noted: oral, tumor weight at 28th day. The procedure: 0.02 ml of 10(W/V)% cell suspension prepared from a solid cancer cell (Colon-38 carcinoma) were transplanted under skin of BDF1 mice (20-21 g, age of about 5 weeks), and each of testing compounds was orally dosed to the mice at 1st, 5th and 9th day after the transplantation. A major and minor axes of the cancerous tumor were measured at 11th, 14th, 21st, 25th and 28th day after the transplantation to calcurate volume of the tumor in accordance with the following.
At 28th day from the transplantation, the mice were killed and each of the cancerous tumors was extracted to measure its weight and to determine an inhibitation ratio in comparison with a non-treated control group.

For a further test, the system named is B-16 melanoma. The test can be described thus: Anti-tumor action to B-16 melanoma. It is filed as in vivo, BDF1 female mice. The conditions noted are these: oral, tumor weight at 21st day; for inhibition in vivo at 100 mg/kg/day: 100 mg/kg/day × 3; for inhibition in vivo at 200 mg/kg/day: 200 mg/kg/day × 3; for inhibition in vivo at 400 mg/kg/day: 400 mg/kg/day × 3. The text has this: B-16 melanoma (1×10^5 cells) was transplanted under skin of BDF1 female mice (age of about 5 weeks), and each of testing compounds was orally dosed at 1st, 5th and 9th day after the transplantation. At 21st day after the transplantation, the mice were killed to measure a weight of the cancerous tumor and to finally determine an inhibition ratio.

The next test concerns KB cells. The test can be described thus: Suppression of KB cell proliferation in vitro. The conditions noted are these: Homo sapiens, 72 h, 3 days exposure, Trypan Blue dye-exclusion, read-out: KB IC50 (50% inhibition density to tumor cell proliferation). In kind it is cell-based. How it is done:
In a cultivation device (5% CO2, 37° C.), KB cells (1×10^4 cells) were cultivated for 24 hours in a culture tube with 1 ml of Eagle culture medium added 10% ox serum, the used culture medium was thrown away to change with a fresh culture medium (0.9 ml), and then 0.1 ml of a similar culture fluid containing each testing compound prepared by the process as described in the Examples was added to cultivate the same for further 3 days. Thereafter, living cells were dyed with Tripan Blue and measured same through a dye-exclusion method.
A control was treated in a manner similar to the above, except that a culture fluid containing no compound of the invention was added.
50% inhibition density (IC50) to the tumor cell proliferation was decided through the tests between the testing group and the control group to obtain results as shown in following Table 1.

Another test relates to L-1210 leukemia. Briefly: Anti-tumor action to L-1210 leukemia. It is filed as in vivo, BDF1 female mice. The conditions noted are these: Mus musculus, L1210, oral; for ILS at 250 mg/kg/day: 250 mg/kg/day × 3 (1st, 5th, 9th day); for ILS at 500 mg/kg/day: 500 mg/kg/day × 3 (1st, 5th, 9th day). The procedure:
L-1210 leukemia cell (1×10^5 cells) was transplanted in a abdominal cavity of BDF1 female mice (20-21 g, age of about 5 weeks), and each of testing compounds was orally dosed in 250 mg/kg or 500 mg/kg at 1st, 5th and 9th day after the transplantation to check days of life of the mice. [formula]

A further test deals with Lewis lung carcinoma. The test can be described thus: Anti-tumor action to Lewis lung carcinoma (primary tumor weight and metastasis). In kind it is in vivo, BDF1 mice. To be noted: Mus musculus, po, 504 h. The text has this: Lewis lung carcinoma (1×10^5 cells) was transplanted under skin of right ear of BDF1 mice (age of about 5 weeks), and each of testing compounds was orally dosed 10 times from 1st to 10th day after the transplantation. At 21st day after the transplantation, the mice were killed to measure a weight of the primarly tumor and to extract a lung. The lung was fixed in a conventional manner to count a number of metastasis on cancerous cells with use of a stereomicroscope having a low magnification. An anti-tumor action of each compound was expressed with an inhibition in weight of the primarly tumor and an inhibition of the metastasis.

The mark [1] stands for this setting: Mus musculus, B16, 504 h, read-out: B-16 melanoma Inhibition ratio.
The mark [2] stands for this setting: Mus musculus, B16, 504 h, 125 mg/kg/day × 3, read-out: B-16 melanoma Inhibition ratio.

`CCCC[Si](C)(C)CCSCCCNC(=O)n1cc(F)c(=O)[nH]c1=O` [Example 17, N-[3-[[2-(Butyldimethylsilyl)ethyl]thio]propyl]-5-fluoro-3,4-dihydro-2,4-dioxo-1(2H)-pyrimidinecarboxamide]: the inhibition in vivo at 312 mg/kg/day in the test on Colon-38 carcinoma (Mus musculus, 672 h, 312 mg/kg/day × 3, read-out: colon-38 Inhibition ratio) turned out to be 97.4%. Also, in the test on B-16 melanoma (setting [1]), the inhibition in vivo at 100 mg/kg/day came to 54.3%, the inhibition in vivo at 200 mg/kg/day came to 16.3% and the inhibition in vivo at 400 mg/kg/day was found to be 34.8%.
Take `C[Si](CCSCCNC(=O)n1cc(F)c(=O)[nH]c1=O)(c1ccccc1)c1ccccc1` [Example 7, 5-Fluoro-3,4-dihydro-N-[2-[[2-(methyldiphenylsilyl)ethyl]thio]ethyl]-2,4-dioxo-1(2H)-pyrimidinecarboxamide]: the IC50 with KB cells amounted to 4 µg/mL (≈ 8.74 µM). The ILS at 250 mg/kg/day was 11% with L-1210 leukemia (read-out: L-1210 ILS) and less than 25% with L-1210 leukemia (read-out: L-1210 Judgement). The figures for the ILS at 500 mg/kg/day in the test on L-1210 leukemia (read-out: L-1210 ILS) and in the test with L-1210 leukemia (read-out: L-1210 Judgement) were 11% and less than 25%, respectively. The inhibition in vivo at 366 mg/kg/day with Colon-38 carcinoma (Mus musculus, 672 h, 366 mg/kg/day × 3, read-out: colon-38 Inhibition ratio) was found to be 32.2%. Moreover, the inhibition in vivo at 34 mg/kg/day came to 31% in the test on Lewis lung carcinoma (34 mg/kg/day × 10, 21st day, read-out: Inhibition Ratio weight LLC) and 67.1% with Lewis lung carcinoma (34 mg/kg/day × 10, lung, 21st day, read-out: Inhibition Ratio metastasis). Further, the inhibition in vivo at 68 mg/kg/day with Lewis lung carcinoma (68 mg/kg/day × 10, 21st day, read-out: Inhibition Ratio weight LLC) turned out to be 25%; in the test on Lewis lung carcinoma (68 mg/kg/day × 10, lung, 21st day, read-out: Inhibition Ratio metastasis), 87.7%.
As to `CC(C)(C)[Si](C)(C)CCCSCCCNC(=O)n1cc(F)c(=O)[nH]c1=O` [Example 14, N-[3-[[3-(t-Butyldimethylsilyl)propyl]thio]propyl]-5-fluoro-3,4-dihydro-2,4-dioxo-1(2H)-pyrimidinecarboxamide], the values for the ILS at 250 mg/kg/day with L-1210 leukemia (read-out: L-1210 ILS) and in the test on L-1210 leukemia (read-out: L-1210 Judgement) were 19% and less than 25%, respectively. Also, the ILS at 500 mg/kg/day was 68% in the test with L-1210 leukemia (read-out: L-1210 ILS) and 50 to 100% in the test with L-1210 leukemia (read-out: L-1210 Judgement). Moreover, in the test with Colon-38 carcinoma (323 mg/kg/day × 3), the “colon-38 Inhibition ratio” value is on record as 90.1%. Also, the “B-16 melanoma Inhibition ratio” value in the test with B-16 melanoma (125 mg/kg/day × 3) amounted to 55.2%; in the test on B-16 melanoma (250 mg/kg/day × 3), 46.3%.
`CC(C)(C)[Si](C)(C)CCCSCCNC(=O)n1cc(F)c(=O)[nH]c1=O` [Example 13, N-[2-[[3-(t-Butyldimethylsilyl)propyl]thio]ethyl]-5-fluoro-3,4-dihydro-2,4-dioxo-1(2H)-pyrimidinecarboxamide]: the IC50 in the test with KB cells worked out at 13 µg/mL (≈ 33.4 µM). Also, the results for the ILS at 250 mg/kg/day in the test with L-1210 leukemia (read-out: L-1210 ILS) and in the test with L-1210 leukemia (read-out: L-1210 Judgement) were 10% and less than 25%, respectively. For the same molecule, the ILS at 500 mg/kg/day in the test with L-1210 leukemia (read-out: L-1210 ILS) is 67%; in the test with L-1210 leukemia (read-out: L-1210 Judgement), 50 to 100%. The “colon-38 Inhibition ratio” value with Colon-38 carcinoma (311 mg/kg/day × 3) is 81.0%. Besides, in the test with B-16 melanoma (setting [2]), the inhibition in vivo at 125 mg/kg/day worked out at 38%. The “B-16 melanoma Inhibition ratio” value in the test on B-16 melanoma (250 mg/kg/day × 3) was found to be 43.1%.
As for `CCCCCCCC[Si](C)(C)CCSCCNC(=O)n1cc(F)c(=O)[nH]c1=O` [Example 4, N-[2-[[2-(Dimethyloctylsilyl)ethyl]thio]ethyl]-5-fluoro-3,4-dihydro-2,4-dioxo-1(2H)-pyrimidinecarboxamide], the IC50 in the test with KB cells was determined as 20 µg/mL (≈ 46.3 µM). The ILS at 250 mg/kg/day is 12% in the test with L-1210 leukemia (read-out: L-1210 ILS) and less than 25% in the test with L-1210 leukemia (read-out: L-1210 Judgement). For the same molecule, the ILS at 500 mg/kg/day was 38% in the test on L-1210 leukemia (read-out: L-1210 ILS) and 25 to 50% in the test with L-1210 leukemia (read-out: L-1210 Judgement). Besides, the “colon-38 Inhibition ratio” value with Colon-38 carcinoma (345 mg/kg/day × 3) is 80.0%. In addition, the inhibition in vivo at 32 mg/kg/day was 4.6% in the test with Lewis lung carcinoma (32 mg/kg/day × 10, 21st day, read-out: Inhibition Ratio weight LLC) and 76.2% in the test with Lewis lung carcinoma (32 mg/kg/day × 10, lung, 21st day, read-out: Inhibition Ratio metastasis). Moreover, the inhibition in vivo at 64 mg/kg/day worked out at 18% in the test with Lewis lung carcinoma (64 mg/kg/day × 10, 21st day, read-out: Inhibition Ratio weight LLC) and 97.5% in the test on Lewis lung carcinoma (64 mg/kg/day × 10, lung, 21st day, read-out: Inhibition Ratio metastasis).
For the molecule `CC(C)[Si](C)(C)CCCSCCNC(=O)n1cc(F)c(=O)[nH]c1=O` [Example 12, 5-Fluoro-3,4-dihydro-N-[2-[[3-(isopropyldimethylsilyl)propyl]thio]ethyl]-2,4-dioxo-1(2H)-pyrimidinecarboxamide], in the test with KB cells, the IC50 was 15 µg/mL (≈ 39.9 µM). Besides, in the test on L-1210 leukemia (read-out: L-1210 ILS), the ILS at 250 mg/kg/day worked out at 24% and the ILS at 500 mg/kg/day was found to be 70%. Also, in the test with L-1210 leukemia (read-out: L-1210 Judgement), the ILS at 250 mg/kg/day is less than 25% and the ILS at 500 mg/kg/day fell in the range of 50 to 100%. The inhibition in vivo at 338 mg/kg/day with Colon-38 carcinoma (Mus musculus, 672 h, 338 mg/kg/day × 3, read-out: colon-38 Inhibition ratio) came out at 97.3%. Further, the inhibition in vivo at 125 mg/kg/day in the test with B-16 melanoma (setting [2]) worked out at 34.2%. Further, the inhibition in vivo at 250 mg/kg/day in the test on B-16 melanoma (Mus musculus, B16, 504 h, 250 mg/kg/day × 3, read-out: B-16 melanoma Inhibition ratio) was 37.9%.
`CCCC[Si](C)(C)CCCSCCCNC(=O)n1cc(F)c(=O)[nH]c1=O` [Example 15, N-[3-[[3-(Butyldimethylsilyl)propyl]thio]propyl]-5-fluoro-3,4-dihydro-2,4-dioxo-1(2H)-pyrimidinecarboxamide]: the ILS at 250 mg/kg/day in the test with L-1210 leukemia (read-out: L-1210 ILS) was 26%; with L-1210 leukemia (read-out: L-1210 Judgement), 25 to 50%. The ILS at 500 mg/kg/day in the test with L-1210 leukemia (read-out: L-1210 ILS) was 62%; in the test on L-1210 leukemia (read-out: L-1210 Judgement), 50 to 100%. In addition, the “colon-38 Inhibition ratio” value with Colon-38 carcinoma (323 mg/kg/day × 3) is recorded as 92.3%. For the same molecule, the “B-16 melanoma Inhibition ratio” value in the test with B-16 melanoma (125 mg/kg/day × 3) was 69.5%; with B-16 melanoma (250 mg/kg/day × 3), 88.5%.
As to `C[Si](C)(CCCSCCCNC(=O)n1cc(F)c(=O)[nH]c1=O)c1ccccc1` [Example 16, N-[3-[[3-(Dimethylphenylsilyl)propyl]thio]propyl]-5-fluoro-3,4-dihydro-2,4-dioxo-1(2H)-pyrimidinecarboxamide], the ILS at 250 mg/kg/day is 23% in the test on L-1210 leukemia (read-out: L-1210 ILS) and less than 25% in the test with L-1210 leukemia (read-out: L-1210 Judgement). In addition, the ILS at 500 mg/kg/day with L-1210 leukemia (read-out: L-1210 ILS) was 86%; in the test on L-1210 leukemia (read-out: L-1210 Judgement), 50 to 100%. Besides, the “colon-38 Inhibition ratio” value with Colon-38 carcinoma (339 mg/kg/day × 3) worked out at 97.9%. For the same molecule, the “B-16 melanoma Inhibition ratio” value with B-16 melanoma (125 mg/kg/day × 3) was found to be 82.2%; with B-16 melanoma (250 mg/kg/day × 3) it was 70.5%.
`C[Si](C)(CCSCCCNC(=O)n1cc(F)c(=O)[nH]c1=O)c1ccccc1` [Example 18, N-[3-[[2-(Dimethylphenylsilyl)ethyl]thio]propyl]-5-fluoro-3,4-dihydro-2,4-dioxo-1(2H)-pyrimidinecarboxamide]: the inhibition in vivo at 328 mg/kg/day with Colon-38 carcinoma (Mus musculus, 672 h, 328 mg/kg/day × 3, read-out: colon-38 Inhibition ratio) is 71.3%. Besides, in the test on B-16 melanoma (setting [1]), the inhibition in vivo at 100 mg/kg/day was determined as 55.2%, the inhibition in vivo at 200 mg/kg/day amounted to 46.7% and the inhibition in vivo at 400 mg/kg/day came to 29.6%.
